From PMC7281280, “Is the Way to Fight Cancer Paved with Gold? Metal-Based Carbene Complexes with Multiple and Fascinating Biological Features” (Pharmaceuticals, 2020)

Columns and labels:
[1] = molecular target: T1, human topoisomerase I (hTopo I) (Homo sapiens, UniProt P11387); test: Human topoisomerase I relaxation assay; format: biochemical; conditions: 1 μM
T1 construct: purchased TopoGEN, Port Orange, FL, USA
T1 sequence (P11387 1-765): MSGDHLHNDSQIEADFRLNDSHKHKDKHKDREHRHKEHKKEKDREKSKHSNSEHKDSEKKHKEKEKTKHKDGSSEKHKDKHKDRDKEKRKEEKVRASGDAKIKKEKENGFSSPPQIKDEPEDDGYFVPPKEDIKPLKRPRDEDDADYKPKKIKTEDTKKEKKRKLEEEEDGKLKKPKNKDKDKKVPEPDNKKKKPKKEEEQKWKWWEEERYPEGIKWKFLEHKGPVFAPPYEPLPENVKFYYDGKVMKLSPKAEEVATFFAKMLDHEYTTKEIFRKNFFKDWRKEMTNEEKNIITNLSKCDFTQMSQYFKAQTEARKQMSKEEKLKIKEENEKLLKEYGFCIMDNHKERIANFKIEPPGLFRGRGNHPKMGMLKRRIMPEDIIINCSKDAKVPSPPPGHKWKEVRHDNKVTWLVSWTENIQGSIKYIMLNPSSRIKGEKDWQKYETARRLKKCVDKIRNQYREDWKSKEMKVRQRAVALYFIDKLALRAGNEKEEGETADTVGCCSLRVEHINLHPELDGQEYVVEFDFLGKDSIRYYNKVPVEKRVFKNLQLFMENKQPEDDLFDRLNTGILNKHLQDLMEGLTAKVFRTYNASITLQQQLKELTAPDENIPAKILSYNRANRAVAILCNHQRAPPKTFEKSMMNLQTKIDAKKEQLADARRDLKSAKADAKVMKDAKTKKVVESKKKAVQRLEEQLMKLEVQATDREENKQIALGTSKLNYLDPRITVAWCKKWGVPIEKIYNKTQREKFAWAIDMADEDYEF
Method: Topoisomerases are essential enzymes involved in DNA metabolism, because of their ability to cause temporary DNA strand breakage, and tightly involved, if overexpressed, in cancer development.
hTopo I relaxation assays have been performed in a final volume of […], as reported by Iacopetta et al., incubating […] of supercoiled plasmid pHOT1 in Tris-EDTA (TE) buffer (TopoGEN, Port Orange, FL, USA) with tested compounds and recombinant hTopo I (2 units) (TopoGEN, Port Orange, FL, USA) for 1h at 37 °C. The obtained solution has been loaded in a 1% agarose gel containing 1× Tris-acetate-EDTA (TAE) buffer without ethidium bromide (EB). Agarose gel has been stained using 1× TAE buffer with EB ([…]) for 30 min and after washed with distilled water for 15 min. At the end, it has been visualized by using a ultraviolet (UV) transilluminator. The experiment was performed in triplicate.
Figure 7 hTopoI assay.

[2] = molecular target: T2, human topoisomerase II (hTopo II) (Homo sapiens, UniProt P11388); test: Human topoisomerase II decatenation assay; format: biochemical; conditions: 1 μM
T2 construct: purchased topoGEN, Port Orange, FL, USA
Method: Decatenated and linear kDNA (Figure 8, lanes 1 and 2) are used as markers.
hTopo II decatenation assays were performed in a final volume of […], as reported by Iacopetta et al., using […] of kinetoplast DNA (kDNA) (topoGEN, Port Orange, FL, USA), tested compounds and 3 units of hTopo II (topoGEN, Port Orange, FL, USA). The reaction products were loaded in an agarose gel with EB. At the end, the gel was washed with distilled water and analyzed using a UV transilluminator. The experiment was repeated three times.
Lane 1 and 2, decatenated and linear kDNA, respectively.

HeLa cells = test: Immunofluorescence of microtubules, HeLa; format: cell-based, human; conditions: at IC50 value, 24 h
Method: Cells were grown on glass coverslips in full media, then serum-deprived for 24 h and exposed to compounds for 24 h (concentration equal to its IC50 value). Then, the cells after PBS-washed, were fixed with cold methanol (15 min/−20 °C) and incubated with primary antibody, diluted in blocking solution (4 °C/overnight), as previously described. The mouse anti-β-Actin (69879) and the rabbit anti-β tubulin (9104) were purchased from Santa Cruz Biotechnology and used at 1:100 dilution. Coverslips were then washed 3 times with PBS, then fixed cells were incubated with the secondary antibody Alexa Fluor® 568 conjugate goat-anti-mouse and Alexa Fluor® 488 conjugate goat-anti-rabbit (1:500, Thermo Fisher Scientific, Waltham, MA, USA). Nuclei were stained using DAPI (Sigma–Aldrich, Mila, Italy) for 10 min at a concentration of 0.2 μg/mL then washed 3 times with PBS. Fluorescence was detected using a fluorescence microscope (Leica DM 6000). LAS-X software was used to acquire and process all images.
Figure 6 Immunofluorescence studies. HeLa cells were treated with AuL4, Vinblastine, Paclitaxel (used at their IC50 values) or with a vehicle (CTRL) for 24 h. After treatment, the cells were methanol fixed, incubated with primary and secondary antibodies, stained with DAPI and observed and imaged under the inverted fluorescence microscope at 20× magnification (see Materials and methods). […] Panels A: DAPI, excitation/emission wavelength 350 nm/460 nm; panels B: β-tubulin (Alexa Fluor® 488) excitation/emission wavelength 490 nm/515 nm; panels C show a merge. Representative fields are shown.

tubulin = test: In vitro tubulin-polymerization assay (turbidity at 350 nm); format: biochemical; conditions: 10 µM
Method: Tubulin-polymerization inihibition was measured using in vitro Tubulin-Polymerization Assay Kit purchased fromEMD Millipore Corporation. Polymerization reactions occur in 70 µL final volumes, of which 60 µL is the 60 µM tubulin in 1 × PB-GTP and 10 µL is the test substance dissolved in 1 × PB-GTP. […] These reactives were combined in 96-well plate on ice. After the plate was transferred into the spectrophotometer pre-warmed at 37 °C and the turbidity variation was measured every 30 s at 350 nm for 90 min. The plate was shaked for 10 s before each measurement. Turbidity (absorbance) readings were used to calculate the extent of polymerization [% inhibition = (1−A350 sample/A350 control) × 100].
Figure 4 Tubulin-polymerization assay. […] Two positive control molecules, Paclitaxel and Vinblastine, were used as tubulin-stabilizing and tubulin-destabilizing agents, respectively. DMSO was used as a negative control. Assembly of tubulin into microtubules was determined by measuring the turbidity at 350 nm for 3600 s at 37 °C. All the compounds were used at a concentration of 10 μM.

T2 sequence (P11388 whole entry): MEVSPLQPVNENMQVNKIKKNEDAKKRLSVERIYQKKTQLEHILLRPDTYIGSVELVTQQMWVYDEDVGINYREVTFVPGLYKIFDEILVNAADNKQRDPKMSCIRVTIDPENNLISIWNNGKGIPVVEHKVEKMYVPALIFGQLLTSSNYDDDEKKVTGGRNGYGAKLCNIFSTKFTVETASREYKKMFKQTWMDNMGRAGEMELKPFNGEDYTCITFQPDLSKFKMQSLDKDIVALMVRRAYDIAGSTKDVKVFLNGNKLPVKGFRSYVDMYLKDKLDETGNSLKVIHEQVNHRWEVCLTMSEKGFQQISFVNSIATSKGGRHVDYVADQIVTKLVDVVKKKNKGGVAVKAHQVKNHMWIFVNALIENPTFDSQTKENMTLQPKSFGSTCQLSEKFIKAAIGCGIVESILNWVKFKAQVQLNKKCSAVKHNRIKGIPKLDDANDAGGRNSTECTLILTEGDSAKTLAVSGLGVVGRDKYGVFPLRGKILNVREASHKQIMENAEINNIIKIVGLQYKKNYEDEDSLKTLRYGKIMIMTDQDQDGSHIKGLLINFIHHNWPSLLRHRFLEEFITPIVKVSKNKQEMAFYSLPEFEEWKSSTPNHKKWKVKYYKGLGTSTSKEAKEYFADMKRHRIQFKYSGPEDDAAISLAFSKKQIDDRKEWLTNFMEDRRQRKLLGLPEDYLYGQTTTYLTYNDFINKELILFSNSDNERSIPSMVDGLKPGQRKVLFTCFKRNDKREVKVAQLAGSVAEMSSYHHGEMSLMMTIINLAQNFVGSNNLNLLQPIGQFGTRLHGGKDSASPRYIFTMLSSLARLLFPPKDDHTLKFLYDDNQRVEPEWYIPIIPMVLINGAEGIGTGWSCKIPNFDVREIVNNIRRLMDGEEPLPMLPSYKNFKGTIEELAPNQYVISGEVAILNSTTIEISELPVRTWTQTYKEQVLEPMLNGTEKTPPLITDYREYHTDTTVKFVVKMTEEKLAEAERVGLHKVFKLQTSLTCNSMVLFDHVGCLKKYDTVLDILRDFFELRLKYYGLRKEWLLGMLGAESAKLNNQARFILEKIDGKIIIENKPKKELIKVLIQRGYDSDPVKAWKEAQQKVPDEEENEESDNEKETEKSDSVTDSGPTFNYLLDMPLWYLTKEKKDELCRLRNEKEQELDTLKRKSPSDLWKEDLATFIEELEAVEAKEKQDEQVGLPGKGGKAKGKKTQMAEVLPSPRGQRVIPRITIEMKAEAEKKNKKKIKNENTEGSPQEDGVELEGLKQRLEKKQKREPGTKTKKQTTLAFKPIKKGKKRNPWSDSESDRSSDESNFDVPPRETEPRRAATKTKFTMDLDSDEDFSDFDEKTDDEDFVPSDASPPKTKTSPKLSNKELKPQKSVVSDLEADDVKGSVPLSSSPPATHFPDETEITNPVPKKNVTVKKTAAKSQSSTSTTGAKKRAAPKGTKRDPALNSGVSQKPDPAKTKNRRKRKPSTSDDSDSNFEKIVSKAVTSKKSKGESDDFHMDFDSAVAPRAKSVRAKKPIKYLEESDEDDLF

With `C[n+]1c(Cl)c(Cl)n(C2CCCC2O)[c]1[Au-][c]1n(C2CCCC2O)c(Cl)c(Cl)[n+]1C.[Cl][Au-][Cl]` (racemic) [AuL4, bis-[4,5-dichloro-(N-methyl-N’(cyclopentane-2ol)-imidazole-2-ylidine)gold(I)]^+[dichloro-gold]^−] as the compound, how does the “inhibition of hTopo I supercoil relaxing activity” value [1] read?
Its value is “totally inhibition”.

And the “inhibition of hTopo II decatenation activity” value [2]?
Its value is “total blockade of hTopoII activity”.

What about the “effect on microtubule network, HeLa” value (HeLa cells) of the same compound?
Its value is “paclitaxel-like behavior”.

And the “effect on tubulin-polymerization reaction” value (tubulin)?
The value was “seems not to hamper the tubulin-polymerization reaction”.

What about the “final optical density value at 350 nm (OD350)” value (tubulin; 37 °C, vehicle (DMSO) about 0.43) of the same compound?
Its value is “slightly higher than that of DMSO reaction”.
